Target: T1, K103NNY181C mutant reverse transcriptase (Human immunodeficiency virus type 1 group M subtype B, UniProt P04585, K690N/Y768C)
T1 construct: mutations that occur in the reverse transcriptase segment of the pol gene
Experiment: Reverse transcriptase enzymatic assay (PicoGreen), K103N/Y181C mutant RT
Assay type: biochemical, HIV-1
Details: enzymatic assay of Example 24
Outline: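 HIV-1 RT (2.5 nM final) pre-incubated 15 min at room temperature with inhibitor, then reacted 50 min at 37 °C with poly rC 45 nM, dG15 4.5 nM, dGTP 3.6 μM in Tris/HCl pH 7.8, 1% DMSO. Final inhibitor 10 μM to 0.508 nM; EDTA-quenched, PicoGreen fluorescence read at 485/520 nm.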

[1] = IC50 mut, K103N/Y181C mutant reverse transcriptase
[2] = IC50 mut (nM), mutant (K103N/Y181C) reverse transcriptase
[3] = IC50 mut, mutant reverse transcriptase

Structure (SMILES): Cc1cc(Cl)c(-n2nnnc2SCC(=O)Nc2ccc(C#CC(C)(C)O)cc2Cl)cc1C(F)(F)F [Compound 4060]
- IC50 [1]: 42 nM

Structure (SMILES): CC(C)(C)c1ccc(-n2nnnc2SCC(=O)Nc2ccc(NC(=O)C(C)(C)c3ccccc3)cc2Cl)c(Cl)c1 [Compound 7041]
- IC50 [2]: 337 nM

Structure (SMILES): O=C(CSc1nnnn1-c1ccc(C2CC2)cc1Cl)Nc1ccc(C(=O)NS(=O)(=O)c2ccccc2)cc1Cl [Compound 6037]
- IC50 [3]: 111 nM

Structure (SMILES): CC(C)(C#Cc1ccc(NC(=O)CSc2nnnn2-c2ccc(C(C)(C)C)cc2Cl)c(Cl)c1)OCC(=O)Nc1ccncc1 [Compound 4041]
- IC50 [1]: 35 nM

Structure (SMILES): CC(C)(C#Cc1ccc(NC(=O)CSc2nnnn2-c2cc(Cl)ccc2Cl)c(Cl)c1)C(=O)O [Compound 4162]
- IC50 [1]: 99 nM

Structure (SMILES): CC(C)(C#Cc1ccc(NC(=O)CSc2nnc(C(F)(F)F)n2-c2ccc(C3CC3)cc2Cl)c(Cl)c1)NC(=O)c1cc[n+]([O-])cc1 [Compound 1018]
- IC50 [3]: 51 nM

Structure (SMILES): CC(C)(C#Cc1ccc(NC(=O)CSc2nnnn2-c2cc(C(C)(C)C)ccc2Cl)c(Cl)c1)NC(=O)CN1CCC(C(=O)O)CC1 [Compound 4204]
- IC50 [1]: 35 nM

Structure (SMILES): O=C(CSc1nnnn1-c1ccc(C2CC2)cc1Cl)Nc1ccc(-c2ccc(OCCN3CCCC3)cc2)cc1Cl [Compound 2046]
- IC50 [3]: 6.95 nM

Structure (SMILES): CC(CC(=O)O)NC(=O)COC(C)(C)C#Cc1ccc(NC(=O)CSc2nnnn2-c2ccc(C(C)(C)C)cc2Cl)c(Cl)c1 (stereo not shown) [Compound 4046]
- IC50 [1]: 23 nM

Structure (SMILES): CC(C)(C#Cc1ccc(NC(=O)CSc2nnnn2-c2cc(C3CC3)ccc2Cl)c(Cl)c1)C(=O)O [Compound 4174]
- IC50 [1]: 34 nM

Structure (SMILES): CC(C)(O)C#Cc1ccc(NC(=O)CSc2nnnn2-c2cc3c(cc2Cl)CCC3)c(Cl)c1 [Compound 4065]
- IC50 [1]: 13.5 nM

Structure (SMILES): CC(C)(C#Cc1ccc(NC(=O)CSc2nnnn2-c2cc(C3CC3)cc(C(F)(F)F)c2Cl)c(Cl)c1F)NC(=O)c1ccc[n+]([O-])c1 [Compound 4248]
- IC50 [1]: 30.5 nM

Structure (SMILES): CC(C)(C)c1ccc(-n2nnnc2SCC(=O)Nc2ccc(C(=O)Nc3ccncc3)cc2Cl)c(Cl)c1 [Compound 6029]
- IC50 [3]: 22 nM

Structure (SMILES): CC(=O)NC(C)(C)C#Cc1ccc(NC(=O)CSc2nnnn2-c2cc(C(F)(F)F)ccc2Cl)c(Cl)c1 [Compound 4141]
- IC50 [1]: 40 nM

Structure (SMILES): CC(C)(C)c1ccc(-n2nnnc2SCC(=O)Nc2ccc(OCC(=O)Nc3ccccc3O)cc2Cl)c(Cl)c1 [Compound 5009]
- IC50 [3]: 131 nM

Structure (SMILES): CC(C)(C#Cc1ccc(NC(=O)CSc2nnnn2-c2ccc(C3CC3)cc2Cl)c(Cl)c1)C(=O)NCCN1CCCC1 [Compound 4143]
- IC50 [1]: 65 nM

Structure (SMILES): CC(C)(C)c1ccc(-n2nnnc2SCC(=O)Nc2ccc(-c3ccc(OCC(=O)O)c(Cl)c3)cc2Cl)c(Cl)c1 [Compound 3013]
- IC50 [3]: 24 nM

Structure (SMILES): CC(C)(C#Cc1ccc(NC(=O)CSc2nnnn2-c2ccc(C3CC3)cc2Cl)c(Cl)c1F)OCCO [Compound 4169]
- IC50 [1]: 9.2 nM

Structure (SMILES): CC(C)(C)c1ccc(-n2nnnc2SCC(=O)Nc2ccc(C#CCOC(N)=O)cc2Cl)c(Cl)c1 [Compound 4034]
- IC50 [1]: 8.9 nM

Structure (SMILES): CS(=O)(=O)NC(=O)c1ccc(NC(=O)CSc2nnnn2-c2ccc(C3CC3)cc2Cl)c(Cl)c1 [Compound 6036]
- IC50 [3]: 146 nM

Structure (SMILES): Cc1nnc(SCC(=O)Nc2ccc(-c3ccc(OCC(=O)O)cc3)cc2Cl)n1-c1ccc(C(C)(C)C)cc1Cl [Compound 1001]
- IC50 [3]: 25.5 nM

Structure (SMILES): CC(C)(C)c1ccc(-n2nnnc2SCC(=O)Nc2ccc(NC(=O)c3ccc(O)cc3)cc2Cl)c(Cl)c1 [Compound 7011]
- IC50 [2]: 181 nM

Structure (SMILES): CCNC(=O)NC(C)(C)C#Cc1ccc(NC(=O)CSc2nnnn2-c2ccc(C3CC3)cc2Cl)c(Cl)c1 [Compound 4075]
- IC50 [1]: 20.5 nM

Structure (SMILES): CC(C)NS(=O)(=O)c1ccc(NC(=O)CSc2nnnn2-c2ccc(C(C)(C)C)cc2Cl)c(Cl)c1 [Compound 3023]
- IC50 [3]: 284 nM

Structure (SMILES): O=C(CSc1nnnn1-c1ccc(C2CC2)cc1Cl)Nc1ccc(C#CC(O)(C(F)(F)F)C(F)(F)F)cc1Cl [Compound 4249]
- IC50 [1]: 203 nM

Structure (SMILES): C#Cc1ccc(NC(=O)CSc2nnnn2-c2ccc(C(C)(C)C)cc2Cl)c(Cl)c1 [Compound 4089]
- IC50 [1]: 69 nM

Structure (SMILES): Cc1ccc(-n2c(C)cnc2SCC(=O)Nc2ccc(-c3ccc(CC(=O)O)cc3)cc2Cl)c(Cl)c1 [Compound 1009]
- IC50 [3]: 549 nM

Structure (SMILES): CC(C)(N)C#Cc1ccc(NC(=O)CSc2nnnn2-c2cc(C(C)(C)C)cc(Br)c2Cl)c(Cl)c1 [Compound 4221]
- IC50 [1]: 108 nM

Structure (SMILES): CC(C)(C#Cc1ccc(NC(=O)CSc2nnnn2-c2ccc(C3CC3)cc2Cl)c(Cl)c1)OCCN [Compound 4190]
- IC50 [1]: 59.5 nM

Structure (SMILES): CC(C)(C#Cc1ccc(NC(=O)CSc2nnnn2-c2cc(Cl)ccc2Cl)c(Cl)c1)NC(=O)c1cc[n+]([O-])cc1 [Compound 4189]
- IC50 [1]: 19.5 nM

Structure (SMILES): CC(C)(C#Cc1ccc(NC(=O)CSc2nnnn2-c2ccc(C(C)(C)C)cc2Cl)c(Cl)c1)OCC(=O)NCC(=O)O [Compound 4052]
- IC50 [1]: 30 nM

Structure (SMILES): CCNC(=O)c1ccc(NC(=O)CSc2nnnn2-c2ccc(C)cc2Cl)c(Cl)c1 [Compound 3008]
- IC50 [3]: 300 nM

Structure (SMILES): Cc1cc(C)c(-n2nnnc2SCC(=O)Nc2ccc(-c3ccc(C(C)(C)C(=O)O)cc3)cc2Cl)c(Cl)c1 [Compound 2025]
- IC50 [3]: 42 nM

Structure (SMILES): CC(C)(C#Cc1ccc(NC(=O)CSc2nnnn2-c2ccc(C3CC3)cc2Cl)c(Cl)c1)C(=O)NCCCN1CCCC1=O [Compound 4152]
- IC50 [1]: 36.5 nM

Structure (SMILES): CN(C)CC(=O)NC(C)(C)C#Cc1ccc(NC(=O)CSc2nnnn2-c2ccc(C3CC3)cc2Cl)c(Cl)c1F [Compound 4155]
- IC50 [1]: 9.15 nM

Structure (SMILES): CC(C)(C#Cc1ccc(NC(=O)CSc2nnnn2-c2cc(C(F)(F)F)ccc2Cl)c(Cl)c1)NC(=O)c1cc[n+]([O-])cc1 [Compound 4120]
- IC50 [1]: 17.5 nM

Structure (SMILES): CC(C)(C)c1ccc(-n2nnnc2SCC(=O)Nc2ccc(S(=O)(=O)Nc3ccccc3)cc2Cl)c(Cl)c1 [Compound 3026]
- IC50 [3]: 423 nM

Structure (SMILES): CC(C(=O)Nc1ccc(NC(=O)CSc2nnnn2-c2ccc(C(C)(C)C)cc2Cl)c(Cl)c1)c1ccccc1 (stereo not shown) [Compound 7044]
- IC50 [2]: 335 nM

Structure (SMILES): CCCC#Cc1ccc(NC(=O)CSc2nnnn2-c2ccc(C(C)(C)C)cc2Cl)c(Cl)c1 [Compound 4009]
- IC50 [1]: 8.9 nM

Structure (SMILES): Cc1ccc(-n2nnnc2SCC(=O)Nc2ccc(-c3ccc(CC(N)=O)cc3)cc2Cl)c(Cl)c1 [Compound 2012]
- IC50 [3]: 15 nM

Structure (SMILES): CC(C)(C#Cc1ccc(NC(=O)CSc2nnnn2-c2ccc(C(C)(C)C)cc2Cl)c(Cl)c1)OCC(=O)NC1(C(=O)O)CC1 [Compound 4036]
- IC50 [1]: 36 nM

Structure (SMILES): CC(C)(C#Cc1ccc(NC(=O)CSc2nnnn2-c2ccc(C3CC3)cc2Cl)c(Cl)c1F)C(=O)O [Compound 4100]
- IC50 [1]: 18 nM

Structure (SMILES): Cc1ccc(-n2nnnc2SCC(=O)Nc2ccc(-c3nnn[nH]3)cc2Cl)c(Cl)c1 [Compound 3019]
- IC50 [3]: 539 nM

Structure (SMILES): CC(=O)NNC(=O)COC(C)(C)C#Cc1ccc(NC(=O)CSc2nnnn2-c2ccc(C(C)(C)C)cc2Cl)c(Cl)c1 [Compound 4043]
- IC50 [1]: 35 nM

Structure (SMILES): CC(C)(C#Cc1ccc(NC(=O)CSc2nnnn2-c2ccc(C3CC3)cc2Cl)c(Cl)c1)NCc1cc[n+]([O-])cc1 [Compound 4186]
- IC50 [1]: 12 nM

Structure (SMILES): CC(C)(C)c1ccc(-n2nnnc2SCC(=O)Nc2ccc(OCC(=O)NCc3ccc(O)c(O)c3)cc2Cl)c(Cl)c1 [Compound 5019]
- IC50 [3]: 78 nM

Structure (SMILES): CC(C)(C#Cc1ccc(NC(=O)CSc2nnnn2-c2cc(Cl)c(C3CC3)cc2Cl)c(Cl)c1)C(=O)O [Compound 4206]
- IC50 [1]: 152 nM

Structure (SMILES): CC(C)(C)c1ccc(-n2nnnc2SCC(=O)Nc2ccc(C(=O)NCc3cccnc3)cc2Cl)c(Cl)c1 [Compound 6008]
- IC50 [3]: 26 nM

Structure (SMILES): CC(C)(C)c1ccc(-n2nnnc2SCC(=O)Nc2ccc(OCC(=O)NN3CCOCC3)cc2Cl)c(Cl)c1 [Compound 5006]
- IC50 [3]: 374 nM
